Experimental data reported in patent US9034866B2 (Genentech, Inc., priority 2012, dated 2015).
Read-outs that look alike come from different tables or passages of the source.

Molecular target: nuclear factor-kappa B (NF-kB)-inducing kinase (NIK) (Homo sapiens (Human), UniProt Q99558)
Assay: NIK Enzyme Inhibition Assay (Transcreener ADP fluorescence polarization)
Format: biochemical
Conditions: read-out: NIK ADP-FP (Ki uM)
Method: NIK Enzyme Inhibition Assay: The ability of the nuclear factor-kappa B (NF-kB)-inducing kinase (NIK) to catalyze the hydrolysis of adenosine-5′-triphosphate (ATP) was monitored using the Transcreener ADP (adenosine-5′-diphosphate) assay (BellBrook Labs). Purified NIK (0.2-1 nM) derived from a baculovirus-infected insect cell expression system was incubated with test compounds for 1-3.5 hours in 50 mM 2-[4-(2-hydroxyethyl)piperazin-1-yl]ethanesulfonic acid buffer (pH 7.2) containing 10 mM MgCl2, 2 mM dithiothreitol, 10 uM ATP, 0.01% Triton X-100, 0.1% gamma-globulins from bovine blood, 1% dimethylsulfoxide (DMSO), 12 ug/mL ADP antibody and 4 nM ADP-AlexaFluor® 633 tracer. Reactions were quenched by the addition of 20 mM 2,2′,2″,2′″-(ethane-1,2-diyldinitrilo)tetraacetic acid and 0.01% Brij 35. The tracer bound to the antibody was displaced by the ADP generated during the NIK reaction, which causes a decrease in fluorescence polarization that was measured by laser excitation at 633 nm with a Fluorescence Correlation Spectroscopy Plus reader (Evotec AG).

[1] = purified NIK 0.2-1 nM, 10 uM ATP, Morrison's quadratic equation

Chain of nuclear factor-kappa B (NF-kB)-inducing kinase (NIK) (Q99558 whole entry): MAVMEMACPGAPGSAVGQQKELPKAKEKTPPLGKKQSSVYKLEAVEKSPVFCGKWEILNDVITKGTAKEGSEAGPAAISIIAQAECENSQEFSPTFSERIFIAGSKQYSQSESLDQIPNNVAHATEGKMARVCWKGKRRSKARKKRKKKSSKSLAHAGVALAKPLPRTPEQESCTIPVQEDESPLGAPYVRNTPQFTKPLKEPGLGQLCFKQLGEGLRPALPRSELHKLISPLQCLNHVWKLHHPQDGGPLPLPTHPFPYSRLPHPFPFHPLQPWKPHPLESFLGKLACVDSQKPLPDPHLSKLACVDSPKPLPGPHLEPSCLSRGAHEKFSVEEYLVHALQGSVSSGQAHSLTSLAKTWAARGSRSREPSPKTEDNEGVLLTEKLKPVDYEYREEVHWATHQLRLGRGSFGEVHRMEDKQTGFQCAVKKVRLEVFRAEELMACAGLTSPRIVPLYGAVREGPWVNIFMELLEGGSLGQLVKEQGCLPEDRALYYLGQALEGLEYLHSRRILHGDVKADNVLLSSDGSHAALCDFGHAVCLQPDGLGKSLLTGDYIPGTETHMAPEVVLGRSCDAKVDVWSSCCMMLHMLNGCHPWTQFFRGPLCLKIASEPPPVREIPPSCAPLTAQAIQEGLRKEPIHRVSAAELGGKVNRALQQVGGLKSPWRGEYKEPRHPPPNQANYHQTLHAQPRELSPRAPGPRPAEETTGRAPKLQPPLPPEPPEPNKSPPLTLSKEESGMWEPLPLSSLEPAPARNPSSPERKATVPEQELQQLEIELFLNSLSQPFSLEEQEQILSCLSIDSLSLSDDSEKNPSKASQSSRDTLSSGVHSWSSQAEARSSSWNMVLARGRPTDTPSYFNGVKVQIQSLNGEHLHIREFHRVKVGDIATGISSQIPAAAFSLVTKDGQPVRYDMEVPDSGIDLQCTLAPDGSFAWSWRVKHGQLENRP

NC(=O)c1cn2c(n1)-c1cc(C#CC3(O)CCC3)c(F)cc1OCC2 [Example 17, 8-fluoro-9-(1-hydroxy-cyclobutylethynyl)-4,5-dihydro-6-oxa-1,3a-diaza-benzo[e]azulene-2-carboxylic acid amide]
Ki [1]: 0.01 µM

CC(O)(C#Cc1cc2c(cc1F)OCCn1cc(C(N)=O)nc1-2)c1cncnc1 (centres unmarked) [Example 18, 8-fluoro-9-(3-hydroxy-3-pyrimidin-5-yl-but-1-ynyl)-4,5-dihydro-6-oxa-1,3a-diaza-benzo[e]azulene-2-carboxylic acid amide]
Ki: > 5 µM

Cc1ncccc1C(C)(O)C#Cc1cc2c(cc1F)OCCn1cc(C(N)=O)nc1-2 (centres unmarked) [Example 19, 8-fluoro-9-[3-hydroxy-3-(2-methyl-pyri-din-3-yl)-bul-1-ynyl]-4,5-dihydro-6-oxa-1,3a-diaza-benzo[e]azulene-2-carboxy-lic acid amide]
Ki [1]: > 5 µM

CC(O)(C#Cc1ccc2c(c1)-c1nc(C(N)=O)cn1CCO2)CO (centres unmarked) [Example 20]
Ki [1]: 0.771 µM

CC(C)(O)C#Cc1ccc2c(c1)-c1nc(C(N)=O)sc1C(C)(O)CO2 (centres unmarked) [Example 21, 4-hydroxy-9-(3-hydroxy-3-methyl-but-1-ynyl)-4-methyl-4,5-dihydro-6-oxa-3-thia-1-aza-benzo[e]azulene-2-carboxylic acid amide]
Ki [1]: 0.094 µM

CC(C)(O)C#Cc1ccc2c(c1)-c1nc(C(N)=O)sc1C(NC1CCC1)CO2 (centres unmarked) [Example 22, 4-cyclobutylamino-9-(3-hydroxy-3-meth-yl-but-1-ynyl)-4,5-dihydro-6-oxa-3-thia-1-aza-benzo[e]azulene-2-carboxylic acid amide]
Ki [1]: 0.97 µM

CN1CCC(O)(C#Cc2ccc3c(c2)-c2nc(C(N)=O)cn2CCO3)C1 (centres unmarked) [Example 23, 9-(3-hydroxy-1-methyl-pyrrolidin-3-yl-ethynyl)-4,5-dihydro-6-oxa-1,3a-diaza-benzo[e]azulene-2-carboxylic acid amide]
Ki [1]: > 5 µM

CC(C)(O)C#Cc1cc2c(cc1F)OCCn1c-2nc(C(N)=O)c1Cc1ccccc1 [Example 24, 3-benzyl-8-fluoro-9-(3-hydroxy-3-meth-yl-but-1-ynyl)-4,5-dihydro-6-oxa-1,3a-diaza-benzo[e]azulene-2-carboxylic acid amide]
Ki [1]: 0.011 µM

CC(C)(O)C#Cc1cc2c(cc1F)OCCn1c-2nc(C(N)=O)c1Cc1ccccc1F [Example 25, 8-fluoro-3-(2-fluoro-benzyl)-9-(3-hydro-xy-3-methyl-but-1-ynyl)-4,5-dihydro-6-oxa-1,3a-diaza-benzol[e]azulene-2-car-boxylic acid amide]
Ki [1]: 0.012 µM

CC(=O)NC1COc2ccc(C#CC(C)(C)O)cc2-c2nc(C(N)=O)sc21 (centres unmarked) [Example 26, 4-acetylamino-9-(3-hydroxy-3-methyl-but-1-ynyl)-4,5-dihydro-6-oxa-3-thia-1-aza-benzo[e]azulene-2-carboxylic acid amide]
Ki [1]: 0.21 µM

CC(C)(O)C#Cc1ccc2c(c1)-c1nc(C(N)=O)sc1C(F)(F)CO2 [Example 27, 4,4-diriuoro-9-(3-hydroxy-3-methyl-but-1-ynyl)-4,5-dihydro-6-oxa-3-thia-1-aza-benzo[c]azulene-2-carboxylic acid amide]
Ki [1]: 0.057 µM

Cc1nnc(C(C)(C#Cc2ccc3c(c2)-c2nc(C(N)=O)cn2CCO3)CO)[nH]1 (centres unmarked) [Example 28, 9-[4-hydroxy-3-methyl-3-(5-methyl-4H-[1,24]triazol-3-yl)-but-1-ynyl]-4,5-di-hydro-6-oxa-1,3a-diaza-benzo[e]azulene-2-carboxylic acid amide]
Ki [1]: > 5 µM

NC(=O)c1cn2c(n1)-c1cc(C#CC3(O)CCNC3)ccc1OCC2 (centres unmarked) [Example 29, 9-(3-hydroxy-pyrrolidin-3-ylethynyl)-4,5-dihydro-6-oxa-1,3a-diaza-benzo[e]azu-lene-2-carboxylic acid amide]
Ki [1]: > 5 µM

NC(=O)c1cn2c(n1)-c1cc(C#CC3(O)CC4CCC(C3)N4)ccc1OCC2 (centres unmarked) [Example 31, 9-(3-hydroxy-8-aza-bicyclo[3.2.1]oct-3-ylethynyl)-4,5-dihydro-6-oxa-1,3a-diaza-benzo[e]azulene-2-carboxylic acid amide]
Ki [1]: > 5 µM

CC(O)(C#Cc1cc2c(cc1F)OCCn1cc(C(N)=O)nc1-2)c1cc(CO)on1 (centres unmarked) [Example 32, 8-fluoro-9-[3-hydroxy-3-(5-hydroxymeth-yl-isoxazol-3-yl)-but-1-ynyl]-4,5-dihy-dro-6-oxa-1,3a-diaza-benzo[c]azulene-2-carboxylic acid amide]
Ki [1]: 0.002 µM

CC(C)(O)C#Cc1cc2c(cc1F)OCCn1c-2nc(C(N)=O)c1C#N [Example 33, 3-cyano-8-fluoro-9-(3-hydroxy-3-methyl-but-1-ynyl)-4,5-dihydro-6-oxa-1,3a-diaza-benzo[e]azulene-2-carboxylic acid amide]
Ki [1]: 0.172 µM

Cc1c(C(N)=O)nc2n1CCOc1cc(F)c(C#CC(C)(C)O)cc1-2 [Example 34, 8-fluoro-9-(3-hydroxy-3-methyl-but-1-ynyl)-3-methyl-4,5-dihydro-6-oxa-1,3a-diaza-benzo[e]azulene-2-carboxylic acid amide]
Ki [1]: 0.025 µM

CC(C)(O)C#Cc1cc2c(cc1F)OCCn1c-2nc(C(N)=O)c1-c1cc[nH]n1 [Example 35, 8-fluoro-9-(3-hydroxy-3-methyl-but-1-ynyl)-3-(1H-pyrazol-3-yl)-4,5-dihydro-6-oxa-1,3a-diaza-benzo[e]azulene-2-car-boxylic acid amide]
Ki [1]: 0.003 µM

CC(C)(O)C#Cc1cc2c(cc1F)OCCn1c-2nc(C(N)=O)c1C1CC1 [Example 36, 3-cyclopropyl-8-fluoro-9-(3-hydroxy-3-methyl-but-1-ynyl)-4,5-dihydro-6-oxa-1,3a-diaza-benzo[e]azulene-2-carboxylic acid amide]
Ki [1]: 0.037 µM

NC(=O)c1cn2c(n1)-c1cc(C#CC3(O)CCCC3)ccc1C1CC2C1 [Example 37, 9-[2-(1-hydroxycyclopentyl)ethynyl]-2,5-diazatetra-cyclo[11.1.1.0^2,6.0^7,12]pen-tadeca-3,5,7,9,11-pentaene-4-carboxamide]
Ki [1]: 0.003 µM

Cc1cc([C@](C)(O)C#Cc2cc3c(cc2C)OCCn2cc(C(N)=O)nc2-3)no1 [Example 38, 9-[(R)-3-hydroxy-3-(5-methyl-isoxazol-3-yl)-but-1-ynyl]-8-methyl-4,5-dihydro-6-oxa-1,3a-diaza-benzo[e]azulene-2-car-boxylic acid amide]
Ki [1]: 0.062 µM

CN(C)C(=O)CC1COc2ccc(C#CC(C)(C)O)cc2-c2nc(C(N)=O)sc21 (centres unmarked) [Example 43, 4-dimethylcarbamoylmethyl-9-(3-hydro-xy-3-methyl-but-1-ynyl)-4,5-dihydro-6-oxa-3-thia-1-aza-benzo[e]azulene-2-car-boxylic acid amide]
Ki [1]: 0.403 µM

CC(O)(C#Cc1cc2c(cc1F)OCCn1cc(C(N)=O)nc1-2)C(N)=O (centres unmarked) [Example 52, 9-(3-carbamoyl-3-hydroxy-but-1-ynyl)-8-fluoro-4,5-dihydro-6-oxa-1,3a-diaza-benzo[e]azulene-2-carboxylic acid amide]
Ki [1]: 3.6 µM

CC(O)(C#Cc1cc2c(cc1F)OCCn1cc(C(N)=O)nc1-2)C(F)(F)F (centres unmarked) [Example 56, 8-fluoro-9-(4,4,4-trifluoro-3-hydroxy-3-methyl-but-1-ynyl)-4,5-dihydro-6-oxa-1,3a-diaza-benzo[e]azulene-2-carboxylic acid amide]
Ki [1]: 2 µM

CC(C)(O)C#Cc1cc2c(cc1F)OCCn1c-2nc(C(N)=O)c1C(=O)NC1(C)COC1 [Example 60]
Ki [1]: 0.025 µM

NC(=O)c1cn2c(n1)-c1cc(C#CC3(O)CC(CO)C3)c(F)cc1OCC2 (centres unmarked) [Example 76]
Ki [1]: 2.3 µM

CN1CCCC(NC(=O)c2c(C(N)=O)nc3n2CCOc2cc(F)c(C#CC(C)(C)O)cc2-3)C1 (centres unmarked) [Example 78]
Ki [1]: 0.06 µM

CC(C)(O)C#Cc1cc2c(cc1F)OCCn1c-2nc(C(N)=O)c1C(=O)NCC1COC1 [Example 91]
Ki [1]: 0.004 µM

CC(O)(C#Cc1cc2c(cc1F)OCCn1cc(C(N)=O)nc1-2)C(=O)NC1CC1 (centres unmarked) [Example 94]
Ki [1]: 0.854 µM

CC(O)(C#Cc1cc2c(cc1F)OCCn1cc(C(N)=O)nc1-2)C(=O)N1CC(C#N)C1 (centres unmarked) [Example 95]
Ki [1]: 0.304 µM

CNC(=O)c1c(C(N)=O)nc2n1CCOc1cc(F)c(C#C[C@@](C)(O)c3noc(C)n3)cc1-2 [Example 97, 8-fluoro-9-[(R)-3-hydroxy-3-(5-methyl-[1,2,4]oxadiazol-3-yl)-but-1-ynyl]-4,5-dihydro-6-oxa-1,3a-diaza-ben-zo[e]azulene-2,3-dicarboxylic acid 2-amide 3-methylamide]
Ki [1]: 0.007 µM

CC(O)(C#Cc1cc2c(cc1F)OCCn1cc(C(N)=O)nc1-2)c1ccc(F)cn1 (centres unmarked) [Example 101, 8-fluoro-9-[3-(5-fluoro-pyridin-2-yl)-3-hydroxy-but-1-ynyl]-4,5-dihydro-6-oxa-1,3a-diaza-benzo[e]azulene-2-carboxy-lic acid amide]
Ki [1]: 3.5 µM

CC(O)(C#Cc1cc2c(cc1F)OCCn1cc(C(N)=O)nc1-2)c1ccc(Cl)cn1 (centres unmarked) [Example 102, 9-[3-(5-chloro-pyridin-2-yl)-3-hydroxy-but-1-ynyl]-8-fluoro-4,5-dihydro-6-oxa-1,3a-diaza-benzo[e]azulene-2-carboxy-lic acid amide]
Ki [1]: > 5 µM

CC(C)(O)C#Cc1ccc2c(c1)-c1nc(C(N)=O)c(-c3cc[nH]n3)n1CCO2 [Example 110]
Ki [1]: 0.023 µM

CC(O)(C#Cc1cc2c(cc1F)OCCc1sc(C(N)=O)nc1-2)CF (centres unmarked) [Example 117, 8-fluoro-9-(4-fluoro-3-hydroxy-3-meth-yl-but-1-ynyl)-4,5-dihydro-6-oxa-3-thia-1-aza-benzo[e]azulene-2-carboxylic acid amide]
Ki [1]: 0.005 µM
